Results reported in patent US20260297129A1, “PEPTIDES AS SELECTIVE IL-23 RECEPTOR INHIBITORS” (SANOFI, priority 2023, published 2026).
In brackets after ≈: the same amount, converted by molar mass. Read-outs that look alike come from different tables or passages of the source. Numbered stars: 1 amine (or outer) side, 2 acyl side, 3 side chain; on linkers, the order of the positions; unused ones are H or OH. Bridge positions count the residues as written; N and C are the ends. Square brackets hold non-standard residues; d marks the D form. Peptide text beside a SMILES is read from it. * marks the point of attachment. Lys(Me,(CH2)4NMe(CH2)5CO) = CN(CCCCCC(=O)[*:3])CCCCN(C)CCCC[C@H](N[*:1])C(=O)[*:2]; X2 = O=C(Cc1ccc(-c2ccc(CC(=O)[*:2])cc2)cc1)[*:1]; Trp(7-Me) = Cc1cccc2c(C[C@H](N)C(=O)O)c[nH]c12; Sebacoyl = O=C(CCCCCCCCC(=O)[*:2])[*:1]; NH(CH2)9CO = O=C(CCCCCCCCCN[*:1])[*:2]; 2Nal = N[C@@H](Cc1ccc2ccccc2c1)C(=O)O; Suberoyl = O=C(CCCCCCC(=O)[*:2])[*:1]; d2Nal = N[C@H](Cc1ccc2ccccc2c1)C(=O)O; X1 = O=C(CCCCCCCCCCCCCN[*:1])[*:2]; 3Pal = N[C@@H](Cc1cccnc1)C(=O)O; 12Ado = NCCCCCCCCCCCC(=O)O; AEEEA = NCCOCCOCCOCC(=O)O; Aun = NCCCCCCCCCCC(=O)O; Thp = NC1(C(=O)O)CCOCC1; Me2NCH2CH2 = CN(C)CC*; Aib = CC(C)(N)C(=O)O; Sar = CNCC(=O)O

What was measured:
[1] = system: IL-23 induced STAT3 signaling (IL-23 receptor) in HEK-Blue IL-23 cells; assay: Inhibition of IL-23 induced STAT3 signaling in HEK-Blue IL-23 cells, SEAP reporter (Table 9); format: cell-based; conditions: human IL23 0.25 ng/ml, overnight, read-out: Inhibition of IL-23 induced pSTAT3 (IC50 nM)
Outline: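 STAT3-driven SEAP output measured at OD 620–655 nm after 45 min QUANTI-Blue development of supernatant, with dose-response fits. Peptides were given 60 min ahead of 0.25 ng/ml (final) human IL-23, followed by overnight culture at 37 °C; 10,000 HEK-Blue IL-23 cells per well.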

[2] = Chemical stability (relative purity loss) of peptide compounds in buffer formulations (Table 6); format: physicochemical; conditions: 2° C. and 37° C.
Outline: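 Compounds at 0.5 mg/mL in 50 mM HCl pH 1.2, 50 mM phosphate pH 6.5 or pH 7.4, each with acetonitrile (3:1), stored 24 hours at 2° C and 37° C. Purity measured by UHPLC-UV before and after. Stability expressed as relative purity loss.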

[3] = Protease stability in simulated gastric fluids (FaSSGF) (Table 7); format: in vitro ADME; conditions: fassgf with pepsin, 60 min, 37° C., read-out: Remaining percentage of peptide compound, FaSSGF 60 (min)
Outline: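 Peptides at 1 μM final were incubated at 37 °C in simulated gastric fluid with pepsin (320 mg per 100 mL SGF concentrate). Samples were quenched with ethanol (0.1% HCOOH) at 0, 60, 120 and 240 min and analysed by LC-MS/MS. Percent remaining is the peak area relative to T0 (100%).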

[4] = Solubility of peptide compounds in buffer formulations (Table 5); format: physicochemical; conditions: target 1 mg/ml
Outline: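 Solubility was quantified by UHPLC-UV, comparing 1:10-diluted filtrate peak areas with a DMSO reference standard and correcting for extinction coefficients. Samples were prepared from dried DMSO stock at 1 mg/mL nominal in pH 1.2 HCl, pH 6.5 or pH 7.4 phosphate (50 mM), and agitated 2 h.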

[5] = 50 mM phosphate buffer pH 6.5 + acetonitrile (3:1), read-out: Chemical stability (relative purity loss), Buffer pH 6.5
[6] = 50 mM phosphate buffer pH 7.4 + acetonitrile (3:1), read-out: Chemical stability (relative purity loss), Buffer pH 7.4
[7] = 50 mm hcl + acetonitrile, Buffer pH 1.1 (head; method: 50 mM HCl pH 1.2 + acetonitrile 3:1), read-out: Chemical stability (relative purity loss), Buffer pH 1.1
[8] = Buffer pH 1.1 (head; method: 50 mM HCl pH 1.2), 2 h agitation, read-out: Solubility, Buffer pH 1.1
[9] = aqueous buffer, 50 mM phosphate buffer pH 6.5, 2 h agitation, read-out: Solubility, Buffer pH 6.5
[10] = aqueous buffer, 50 mM phosphate buffer pH 7.4, 2 h agitation, read-out: Solubility, Buffer pH 7.4

| Compound | degraded at 24 h [2, 5] | degraded at 24 h [2, 6] | degraded at 24 h [2, 7] | remaining at 1 h, 1 µM [3] | solubility at 2 h [4, 8] | solubility at 2 h [4, 9] | solubility at 2 h [4, 10] | IC50 [1] |
| --- | --- | --- | --- | --- | --- | --- | --- | --- |
| Cc1cccc2c(C[C@@H]3NC(=O)CCCCCCCCCCCCCNC(=O)CC[C@@H](C(=O)N[C@@H](CC(N)=O)C(=O)N[C@@H](Cc4cccnc4)C(=O)N(C)CC(N)=O)NC(=O)C(C)(C)NC(=O)[C@H](Cc4ccc5ccccc5c4)NC(=O)[C@H](Cc4ccc(OCCN(C)C)cc4)NC(=O)C4(CCOCC4)NC(=O)[C@H](CCC(N)=O)NC3=O)c[nH]c12 [compound 1] ([X1][Trp(7-Me)]Q[Thp]Y(Me2NCH2CH2)[2Nal][Aib]EN[3Pal][Sar]-NH2; lactam N-8) | 0% | 0% | 6.2% | 77% | ≥ 920 µg/mL | < 10 µg/mL | < 10 µg/mL | 1.14 nM |
| Cc1cccc2c(C[C@@H]3NC(=O)CCCCCCCCCNC(=O)CC[C@@H](C(=O)N[C@@H](CC(N)=O)C(=O)N[C@@H](Cc4cccnc4)C(=O)N(C)CC(N)=O)NC(=O)C(C)(C)NC(=O)[C@H](Cc4ccc5ccccc5c4)NC(=O)[C@H](Cc4ccc(OCCN(C)C)cc4)NC(=O)C4(CCOCC4)NC(=O)[C@H](CC(C)C)NC3=O)c[nH]c12 [compound 8] ([NH(CH2)9CO][Trp(7-Me)]L[Thp]Y(Me2NCH2CH2)[2Nal][Aib]EN[3Pal][Sar]-NH2; lactam N-8) | 0% | 0% | 6.2% | 7% | 20 µg/mL (≈ 12.6 µM) | < 10 µg/mL | < 10 µg/mL | 1.85 nM |
| Cc1cccc2c(C[C@@H]3NC(=O)CCCCCCCCCCCNC(=O)CC[C@@H](C(=O)N[C@@H](CC(N)=O)C(=O)N[C@@H](Cc4cccnc4)C(=O)N(C)CC(N)=O)NC(=O)C(C)(C)NC(=O)[C@H](Cc4ccc5ccccc5c4)NC(=O)[C@H](Cc4ccc(OCCN(C)C)cc4)NC(=O)C4(CCOCC4)NC(=O)[C@H](CCC(N)=O)NC3=O)c[nH]c12 [compound 2] ([12Ado][Trp(7-Me)]Q[Thp]Y(Me2NCH2CH2)[2Nal][Aib]EN[3Pal][Sar]-NH2; lactam N-8) | 0% | 0.1% | 6.4% | 73% | ≥ 1140 µg/mL | 220 µg/mL (≈ 135 µM) | 10 µg/mL (≈ 6.13 µM) | 0.28 nM |
| Cc1cccc2c(C[C@@H]3NC(=O)COCCOCCOCCNC(=O)CC[C@@H](C(=O)N[C@@H](CC(N)=O)C(=O)N[C@@H](Cc4cccnc4)C(=O)N(C)CC(N)=O)NC(=O)C(C)(C)NC(=O)[C@H](Cc4ccc5ccccc5c4)NC(=O)[C@H](Cc4ccc(OCCN(C)C)cc4)NC(=O)C4(CCOCC4)NC(=O)[C@H](CCC(N)=O)NC3=O)c[nH]c12 [compound 14] ([AEEEA][Trp(7-Me)]Q[Thp]Y(Me2NCH2CH2)[2Nal][Aib]EN[3Pal][Sar]-NH2; lactam N-8) | 0% | 0% | 8.6% | 100% | ≥ 1200 µg/mL | ≥ 1280 µg/mL | ≥ 1270 µg/mL | 1.21 nM |
| Cc1cccc2c(C[C@@H]3NC(=O)CCCCCCCCC(=O)NCCCC[C@@H](C(=O)N[C@@H](CC(N)=O)C(=O)N[C@@H](Cc4cccnc4)C(=O)N(C)CC(N)=O)NC(=O)C(C)(C)NC(=O)[C@H](Cc4ccc5ccccc5c4)NC(=O)[C@H](Cc4ccc(OCCN(C)C)cc4)NC(=O)C4(CCOCC4)NC(=O)[C@H](CCC(N)=O)NC3=O)c[nH]c12 [compound 11] ([Trp(7-Me)]Q[Thp]Y(Me2NCH2CH2)[2Nal][Aib]KN[3Pal][Sar]-NH2; linker N-7 via Sebacoyl) | 0% | 0% | 7.9% | 98% | ≥ 940 µg/mL | 330 µg/mL (≈ 204 µM) | 500 µg/mL (≈ 309 µM) | 0.28 nM |

Continued, in another order:

| degraded at 24 h [2, 5] | degraded at 24 h [2, 6] | degraded at 24 h [2, 7] | remaining at 1 h, 1 µM [3] | solubility at 2 h [4, 8] | solubility at 2 h [4, 9] | solubility at 2 h [4, 10] | Compound | IC50 [1] |
| --- | --- | --- | --- | --- | --- | --- | --- | --- |
| 0% | 0% | 3.8% | 100% | ≥ 1060 µg/mL | ≥ 980 µg/mL | ≥ 990 µg/mL | CC(=O)NCCCC[C@@H]1NC(=O)[C@H](Cc2c[nH]c3c(C)cccc23)NC(=O)CCCCCN(C)CCCCN(C)CCCC[C@@H](C(=O)N[C@@H](CC(N)=O)C(=O)N[C@@H](Cc2cccnc2)C(=O)N(C)CC(N)=O)NC(=O)C(C)(C)NC(=O)[C@H](Cc2ccc3ccccc3c2)NC(=O)[C@H](Cc2ccc(OCCN(C)C)cc2)NC(=O)C2(CCOCC2)NC1=O [compound 18] ([Trp(7-Me)]K(Ac)[Thp]Y(Me2NCH2CH2)[2Nal][Aib][Lys(Me,(CH2)4NMe(CH2)5CO)]N[3Pal][Sar]-NH2; lactam N-7) | 0.47 nM |
| 0% | 0% | 3.1% | 90% | ≥ 1190 µg/mL | ≥ 1180 µg/mL | ≥ 1230 µg/mL | CC(=O)NCCCC[C@@H]1NC(=O)[C@H](Cc2c[nH]c3c(C)cccc23)NC(=O)[C@@H](NC(C)=O)CCCCN(C)CCCCN(C)CCCC[C@@H](C(=O)N[C@@H](CC(N)=O)C(=O)N[C@@H](Cc2cccnc2)C(=O)N(C)CC(N)=O)NC(=O)C(C)(C)NC(=O)[C@@H](Cc2ccc3ccccc3c2)NC(=O)[C@H](Cc2ccc(OCCN(C)C)cc2)NC(=O)C2(CCOCC2)NC1=O [compound 13] | 0.17 nM |
| 0% | 0.4% | 7.1% | 87% | ≥ 990 µg/mL | ≥ 920 µg/mL | ≥ 920 µg/mL | Cc1cccc2c(C[C@@H]3NC(=O)Cc4ccc(cc4)-c4ccc(cc4)CC(=O)NCCCC[C@@H](C(=O)N[C@@H](CC(N)=O)C(=O)N[C@@H](Cc4cccnc4)C(=O)N(C)CC(N)=O)NC(=O)C(C)(C)NC(=O)[C@H](Cc4ccc5ccccc5c4)NC(=O)[C@H](Cc4ccc(OCCN(C)C)cc4)NC(=O)C4(CCOCC4)NC(=O)[C@H](CCC(N)=O)NC3=O)c[nH]c12 [compound 15] ([Trp(7-Me)]Q[Thp]Y(Me2NCH2CH2)[2Nal][Aib]KN[3Pal][Sar]-NH2; linker N-7 via X2) | 12 nM |
| 0% | 0% | 6.3% | 80% | ≥ 970 µg/mL | 270 µg/mL (≈ 167 µM) | 60 µg/mL (≈ 37.1 µM) | Cc1cccc2c(C[C@@H]3NC(=O)CCCCCCCCCCNC(=O)CC[C@@H](C(=O)N[C@@H](CC(N)=O)C(=O)N[C@@H](Cc4cccnc4)C(=O)N(C)CC(N)=O)NC(=O)C(C)(C)NC(=O)[C@@H](Cc4ccc5ccccc5c4)NC(=O)[C@H](Cc4ccc(OCCN(C)C)cc4)NC(=O)C4(CCOCC4)NC(=O)[C@H](CCC(N)=O)NC3=O)c[nH]c12 [compound 4] ([Aun][Trp(7-Me)]Q[Thp]Y(Me2NCH2CH2)[d2Nal][Aib]EN[3Pal][Sar]-NH2; lactam N-8) | 0.14 nM |
| 0% | 0% | 12% | 104% | ≥ 1050 µg/mL | ≥ 1100 µg/mL | ≥ 1150 µg/mL | Cc1cccc2c(C[C@@H]3NC(=O)CCCCCCC(=O)NCCCC[C@@H](C(=O)N[C@@H](CC(N)=O)C(=O)N[C@@H](Cc4cccnc4)C(=O)N(C)CC(N)=O)NC(=O)C(C)(C)NC(=O)[C@H](Cc4ccc5ccccc5c4)NC(=O)[C@H](Cc4ccc(OCCN(C)C)cc4)NC(=O)C4(CCOCC4)NC(=O)[C@H](CCC(N)=O)NC3=O)c[nH]c12 [compound 12] ([Trp(7-Me)]Q[Thp]Y(Me2NCH2CH2)[2Nal][Aib]KN[3Pal][Sar]-NH2; linker N-7 via Suberoyl) | 0.97 nM |
